Assay results as given in patent publication US20260125421A1, “ANTIVIRAL COMPOUNDS” (Hoffmann-La Roche Inc., priority 2022, published 2026).

Tests used:
Test in all cases: biochemical
[1] = molecular target: SARS-CoV 3CL^pro (Severe acute respiratory syndrome coronavirus, UniProt P0C6X7)
[2] = molecular target: MERS-CoV 3CL^pro (Middle East respiratory syndrome-related coronavirus, UniProt K9N7C7)
[3] = molecular target: T1, HCoV-229E 3CL^pro (Human coronavirus 229E, UniProt P0C6X1)
T1 construct: […]; made in house; host or cells: E. coli BL21 (DE3)
T1 sequence (P0C6X1 2966-3267): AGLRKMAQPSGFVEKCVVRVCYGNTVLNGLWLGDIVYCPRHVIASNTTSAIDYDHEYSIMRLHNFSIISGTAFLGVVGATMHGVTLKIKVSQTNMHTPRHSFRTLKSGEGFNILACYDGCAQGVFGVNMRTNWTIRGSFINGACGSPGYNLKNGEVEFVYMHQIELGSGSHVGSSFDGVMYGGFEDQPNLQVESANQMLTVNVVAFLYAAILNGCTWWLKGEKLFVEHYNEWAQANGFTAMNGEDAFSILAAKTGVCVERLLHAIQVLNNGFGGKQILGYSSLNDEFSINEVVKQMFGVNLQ

[4] = molecular target: T2, SARS-CoV-2 3CL^pro (Severe acute respiratory syndrome coronavirus 2, UniProt P0DTD1)
T2 construct: […]; made in house; host or cells: Escherichia coli

Chain of MERS-CoV 3CL^pro (K9N7C7 3248-3553): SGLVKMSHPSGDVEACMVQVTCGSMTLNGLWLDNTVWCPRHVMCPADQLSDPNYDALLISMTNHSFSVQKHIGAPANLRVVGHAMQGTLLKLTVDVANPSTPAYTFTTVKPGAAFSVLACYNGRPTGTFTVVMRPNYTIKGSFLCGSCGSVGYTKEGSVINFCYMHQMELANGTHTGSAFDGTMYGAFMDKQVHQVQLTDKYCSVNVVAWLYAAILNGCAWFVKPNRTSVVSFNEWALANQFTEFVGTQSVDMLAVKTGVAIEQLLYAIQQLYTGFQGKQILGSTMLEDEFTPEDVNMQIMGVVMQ

**Q.** What does the source list for `CCC(CC)[C@H](NC(=O)[C@H](F)Cl)C(=O)N1C[C@@H]2CCC[C@@H]2[C@H]1C(=O)NN(C[C@@H]1CC(C)(C)NC1=O)C(=O)[C@H](F)Cl` [Example 9, (2R)-N-[(1S)-1-[(3S,3aS,6aR)-3-[[[(2R)-2-chloro-2-fluoro-acetyl]-[[(3S)-5,5-dimethyl-2-oxo-pyrrolidin-3-yl]methyl]amino]carbamoyl]-3,3a,4,5,6,6a-hexahydro-1H-cyclopenta[c]pyrrole-2-carbonyl]-2-ethyl-butyl]-2-chloro-2-fluoro-acetamide]?
**A.** IC50 [1]: 7 nM; IC50 [2]: 250 nM; IC50 [3]: 241 nM; IC50 [4]: 7 nM

**Q.** Which IC50 [1] does the source give for `CC1(C)C[C@@H](CN(NC(=O)[C@@H]2[C@H]3CCC[C@H]3CN2C(=O)[C@@H](NC(=O)[C@@H]2CC2(F)F)C(C)(C)C)C(=O)[C@@H](F)Cl)C(=O)N1` [Example 2a, (1S)—N-[(1S)-1-[(3S,3aS,6aR)-3-[[[(2S)-2-chloro-2-fluoro-acetyl]-[[(3S)-5,5-dimethyl-2-oxo-pyrrolidin-3-yl]methyl]amino]carbamoyl]-3,3a,4,5,6,6a-hexahydro-1H-cyclopenta[c]pyrrole-2-carbonyl]-2,2-dimethyl-propyl]-2,2-difluoro-cyclopropanecarboxamide] here?
**A.** Its IC50 is 64 nM.

**Q.** What about the IC50 [2] of the same molecule?
**A.** The IC50 was 2910 nM.

**Q.** What about the IC50 [3] of the same molecule?
**A.** Its IC50 is 7850 nM.

**Q.** What about the IC50 [4] of the same molecule?
**A.** The IC50 was 29 nM.

**Q.** What does the source list for `CC1(C)C[C@H](CN(NC(=O)[C@@H]2[C@H]3CCC[C@H]3CN2C(=O)[C@@H](NC(=O)[C@@H]2CC2(F)F)C(C)(C)C)C(=O)[C@H](F)Cl)C(=O)N1` [Example 5, (1S)-N-[(1S)-1-[(3S,3aS,6aR)-3-[[[(2R)-2-chloro-2-fluoro-acetyl]-[[(3R)-5,5-dimethyl-2-oxo-pyrrolidin-3-yl]methyl]amino]carbamoyl]-3,3a,4,5,6,6a-hexahydro-1H-cyclopenta[c]pyrrole-2-carbonyl]-2,2-dimethyl-propyl]-2,2-difluoro-cyclopropanecarboxamide]?
**A.** IC50 [1]: 137 nM; IC50 [2]: 1240 nM; IC50 [3]: 4100 nM; IC50 [4]: 81 nM

**Q.** `CC(C)(C)[C@H](NC(=O)[C@@H]1CC1(F)F)C(=O)N1C[C@@H]2CCC[C@@H]2[C@H]1C(=O)NN(C[C@H]1C(=O)N[C@H]2C[C@H]21)C(=O)[C@@H](F)Cl` [Example 39, (1S)-N-[(1S)-1-[(3S,3aS,6aR)-3-[[[(2S)-2-chloro-2-fluoro-acetyl]-[[(1S,4S,5S)-3-oxo-2-azabicyclo[3.1.0]hexan-4-yl]methyl]amino]carbamoyl]-3,3a,4,5,6,6a-hexahydro-1H-cyclopenta[c]pyrrole-2-carbonyl]-2,2-dimethyl-propyl]-2,2-difluoro-cyclopropanecarboxamide] was tested. Which IC50 [1] did it give?
**A.** Its IC50 is 34 nM.

**Q.** And the IC50 [2]?
**A.** Its IC50 is 289 nM.

**Q.** And the IC50 [3]?
**A.** Its IC50 is 207 nM.

**Q.** And the IC50 [4]?
**A.** The IC50 was 29 nM.

**Q.** For `C[C@@H]1C[C@@H](CN(NC(=O)[C@@H]2[C@H]3CCC[C@H]3CN2C(=O)[C@@H](NC(=O)[C@@H]2CC2(F)F)C(C)(C)C)C(=O)[C@@H](F)Cl)C(=O)N1` [Example 30, (1S)-N-[(1S)-1-[(3S,3aS,6aR)-3-[[[(2S)-2-chloro-2-fluoro-acetyl]-[[(3S,5R)-5-methyl-2-oxo-pyrrolidin-3-yl]methyl]amino]carbamoyl]-3,3a,4,5,6,6a-hexahydro-1H-cyclopenta[c]pyrrole-2-carbonyl]-2,2-dimethyl-propyl]-2,2-difluoro-cyclopropanecarboxamide], which IC50 [1] is on record?
**A.** Its IC50 is 11 nM.

**Q.** And the IC50 [2]?
**A.** Its IC50 is 91 nM.

**Q.** What about the IC50 [3] of the same molecule?
**A.** The IC50 was 66 nM.

**Q.** And the IC50 [4]?
**A.** The IC50 was 8 nM.

**Q.** For `CC[C@H](C)[C@H](NC(=O)C1(F)CC1)C(=O)N1C[C@H]2[C@@H]([C@H]1C(=O)NN(C[C@@H]1CC(C)(C)NC1=O)C(=O)[C@H](F)Cl)C2(C)C` [Example 1a, N-[(1S,2S)-1-[(1R,2S,5S)-2-[[[(2R)-2-chloro-2-fluoro-acetyl]-[[(3S)-5,5-dimethyl-2-oxo-pyrrolidin-3-yl]methyl]amino]carbamoyl]-6,6-dimethyl-3-azabicyclo[3.1.0]hexane-3-carbonyl]-2-methyl-butyl]-1-fluoro-cyclopropanecarboxamide], which IC50 [1] is on record?
**A.** Its IC50 is 84 nM.

**Q.** What about the IC50 [2] of the same molecule?
**A.** The IC50 was 635 nM.

**Q.** And the IC50 [3]?
**A.** Its IC50 is 421 nM.

**Q.** What about the IC50 [4] of the same molecule?
**A.** The IC50 was 48 nM.

**Q.** What does the source list for `C[C@H]1C[C@@H](CN(NC(=O)[C@@H]2[C@@H]3[C@H](CN2C(=O)[C@@H](NC(=O)[C@@H]2CC2(F)F)C(C)(C)C)C3(C)C)C(=O)[C@H](F)Cl)C(=O)N1` [Example 33, (1S)-N-[(1S)-1-[(1R,2S,5S)-2-[[[(2R)-2-chloro-2-fluoro-acetyl]-[[(3S,5S)-5-methyl-2-oxo-pyrrolidin-3-yl]methyl]amino]carbamoyl]-6,6-dimethyl-3-azabicyclo[3.1.0]hexane-3-carbonyl]-2,2-dimethyl-propyl]-2,2-difluoro-cyclopropanecarboxamide]?
**A.** IC50 [1]: 13 nM; IC50 [2]: 72 nM; IC50 [3]: 26 nM; IC50 [4]: 6 nM

**Q.** With `C[C@H]1C[C@@H](CN(NC(=O)[C@@H]2[C@H]3CCC[C@H]3CN2C(=O)[C@@H](NC(=O)[C@@H]2CC2(F)F)C(C)(C)C)C(=O)[C@H](F)Cl)C(=O)N1` [Example 27, (1S)-N-[(1S)-1-[(3S,3aS,6aR)-3-[[[(2R)-2-chloro-2-fluoro-acetyl]-[[(3S,5S)-5-methyl-2-oxo-pyrrolidin-3-yl]methyl]amino]carbamoyl]-3,3a,4,5,6,6a-hexahydro-1H-cyclopenta[c]pyrrole-2-carbonyl]-2,2-dimethyl-propyl]-2,2-difluoro-cyclopropanecarboxamide] as the molecule, how does the IC50 [1] read?
**A.** Its IC50 is 10 nM.

**Q.** What about the IC50 [2] of the same molecule?
**A.** The IC50 was 63 nM.

**Q.** And the IC50 [3]?
**A.** Its IC50 is 30 nM.

**Q.** And the IC50 [4]?
**A.** The IC50 was 6 nM.

**Q.** What does the source list for `CC(C)(C)[C@H](NC(=O)[C@@H]1CC1(F)F)C(=O)N1C[C@@H]2CCC[C@@H]2[C@H]1C(=O)NN(C[C@@H]1CC2(CC2)NC1=O)C(=O)[C@H](F)Cl` [Example 25]?
**A.** IC50 [1]: 14 nM; IC50 [2]: 62 nM; IC50 [3]: 40 nM; IC50 [4]: 12 nM

**Q.** What does the source list for `CC1(C)C[C@@H](CN(NC(=O)[C@@H]2[C@H]3CCC[C@H]3CN2C(=O)[C@@H](NC(=O)[C@@H]2CC2(F)F)C(C)(C)C)C(=O)[C@H](F)Cl)C(=O)N1` [Example 4, (1S)-N-[(1S)-1-[(3S,3aS,6aR)-3-[[[(2R)-2-chloro-2-fluoro-acetyl]-[[(3S)-5,5-dimethyl-2-oxo-pyrrolidin-3-yl]methyl]amino]carbamoyl]-3,3a,4,5,6,6a-hexahydro-1H-cyclopenta[c]pyrrole-2-carbonyl]-2,2-dimethyl-propyl]-2,2-difluoro-cyclopropanecarboxamide]?
**A.** IC50 [1]: 15 nM; IC50 [2]: 518 nM; IC50 [3]: 838 nM; IC50 [4]: 11 nM

**Q.** For `CC1(C)C[C@@H](CN(NC(=O)[C@@H]2[C@H]3CCC[C@H]3CN2C(=O)[C@@H](NC(=O)[C@H](F)Cl)C(C)(C)C)C(=O)[C@@H](F)Cl)C(=O)N1` [Example 16], which IC50 [1] is on record?
**A.** Its IC50 is 33 nM.

**Q.** What about the IC50 [2] of the same molecule?
**A.** The IC50 was 6160 nM.

**Q.** What about the IC50 [3] of the same molecule?
**A.** The IC50 was greater than 10000 nM.

**Q.** What about the IC50 [4] of the same molecule?
**A.** Its IC50 is 22 nM.

**Q.** `CC(C)(C)[C@H](NC(=O)[C@@H]1CC1(F)F)C(=O)N1C[C@@H]2CCC[C@@H]2[C@H]1C(=O)NN(C[C@H]1C(=O)N[C@@H]2C[C@@H]21)C(=O)[C@@H](F)Cl` [Example 37, (1S)-N-[(1S)-1-[(3S,3aS,6aR)-3-[[[(2S)-2-chloro-2-fluoro-acetyl]-[[(1R,4S,5R)-3-oxo-2-azabicyclo[3.1.0]hexan-4-yl]methyl]amino]carbamoyl]-3,3a,4,5,6,6a-hexahydro-1H-cyclopenta[c]pyrrole-2-carbonyl]-2,2-dimethyl-propyl]-2,2-difluoro-cyclopropanecarboxamide] was tested. Which IC50 [1] did it give?
**A.** Its IC50 is 21 nM.

**Q.** And the IC50 [2]?
**A.** The IC50 was 320 nM.

**Q.** What about the IC50 [3] of the same molecule?
**A.** Its IC50 is 191 nM.

**Q.** And the IC50 [4]?
**A.** Its IC50 is 17 nM.
